Values after ≈ are worked out from the molar mass of the structure shown. Values joined by “and” are separate entries in the source; they are usually repeats but may differ in a detail not shown here. Equal values may be shown once. “Also recorded” adds a separate entry of the source. Where a name gives a salt, the structure may show the parent alone. Read-outs that look alike come from different tables or passages of the source. Marks after values point to notes of the source that are not given here. Values belong to the compound of their own block, whether it stands above or below them.
How the values were obtained:
[1] = Aqueous solubility of laquinimod and its salts; format: physicochemical; settings: for Aqueous solubility: water
[2] = cited from earlier work
[3] = Physical stability in glass vials at +5° C., air atmosphere; format: physicochemical; settings: for Sample appearance: glass vials, air atmosphere
[4] = Physical stability on exposure to atmospheric air at room temperature; format: physicochemical
[5] = cited from earlier work; remark: listed apart in the source
[6] = cited from earlier work; for intrinsic solubility: free laquinimod in water
[7] = sealed transparent glass vials at +5° C. for 3 months
[8] = sealed transparent glass vials at +5° C. for 6 months
[9] = +5° C., after 9 months of storage
[10] = RH=25-30%, T=18-20° C., 4 hours
[11] = +5° C., after 7 months of storage
[12] = +5° C., after 10 months of storage

SMILES: CCN(C(=O)c1c(O)c2c(Cl)cccc2n(C)c1=O)c1ccccc1 [laquinimod L-lysine]
Aqueous solubility ([1]; depends on preparation method and form, listed as L-lysine laquinimod salt): 1000 mg/mL and 1176 mg/mL

SMILES: CNC[C@H](O)[C@@H](O)[C@H](O)[C@H](O)CO.Cc1cnc(NC(=O)C2=C(O)c3ccccc3S(=O)(=O)N2C)s1 [meglumine salt of meloxicam]
Aqueous solubility ([2]; pH 8.57): 2.3 mg/mL

SMILES: CCN(C(=O)c1c(O)c2c(Cl)cccc2n(C)c1=O)c1ccccc1 [Batch 15, laquinimod monoethanolamine]
Sample appearance ([3]; +5° C., 3 months): off-white powder
Sample appearance ([3]; +5° C., time 0 month): White powder
Physical stability (physical change) [3, 7]: Small physical change was observed; also recorded: color change was developed
Aqueous solubility [1]: 625 mg/ml H2O
Aqueous solubility ([1]; depends on preparation method and form, listed as 4.4): 625 mg/mL
Physical stability ([4]; RH=29-32%, T=18-20° C., 4 hrs): no change; remained white powder
Physical stability ([4]; RH=29-32%, T=18-20° C., 25 hrs): no change; remained white powder

SMILES: C[N+](C)(C)CCO.O=C([O-])c1ccccc1O [choline salicylate salt, choline salicylate]
solubility (in words) [2]: insoluble

SMILES: CCN(C(=O)c1c(O)c2c(Cl)cccc2n(C)c1=O)c1ccccc1 [Batch 3, laquinimod meglumine]
Physical stability (physical change) ([3]; +5° C., after 5 months): physical change was observed
Sample appearance ([3]; +5° C., 6 months): lumped white powder, with signs of deliquescence
Physical stability (physical change) [3, 8]: Physical change was observed

SMILES: CCN(C(=O)c1c(O)c2c(Cl)cccc2n(C)c1=O)c1ccccc1 [laquinimod meglumine]
Aqueous solubility ([1]; depends on preparation method and form, listed as meglumine laquinimod salt): 1050 mg/mL and 1330 mg/mL

SMILES: CNCC(O)C(O)C(O)C(O)CO.Oc1cc(Cl)ccc1Oc1ccc(Cl)cc1Cl [Triclosan meglumine salt]
solubility ([2]; pH not given): 12.43 mg/mL

SMILES: CCN(C(=O)c1c(O)c2c(Cl)cccc2n(C)c1=O)c1ccccc1 [Batch 7, laquinimod choline hydroxide]
Physical stability (physical change) [3, 9]: no sign of physical change
Sample appearance ([3]; +5° C., 5 months): White powder
Sample appearance ([3]; +5° C., 6 months): white powder with no signs of deliquescence
Sample appearance ([3]; +5° C., 9 months): White powder
Sample appearance ([3]; +5° C., time 0 month): White powder
Physical stability (physical change) [3, 8]: No physical change was observed
Aqueous solubility [1]: > 2100 mg/ml H2O
Aqueous solubility ([1]; depends on preparation method and form, listed as 2.3): >2100** mg/ml

SMILES: CN1C(C(=O)Nc2ccccn2)=C(O)c2ccccc2S1(=O)=O.NCCO [monoethanolamine salt of piroxicam]
solubility ([2]; pH 7.4): 126.2 mg/mL

SMILES: CCN(C(=O)c1c(O)c2c(Cl)cccc2n(C)c1=O)c1ccccc1 [Batch 12, laquinimod monoethanolamine]
Sample appearance ([3]; +5° C., 3 months): yellowish aggregated powder
Physical stability (overall) ([3]; refrigerator, atmospheric air, overall statement): less stable
Physical stability (physical change) [3, 7]: Physical change was observed
Physical stability [4, 10]: no change
Physical stability ([4]; RH=25-30%, T=18-20° C., 24 hours): yellowish aggregated powder

SMILES: C[N+](C)(C)CCO.[OH-] [Choline hydroxide]
pKa [5]: 13.9

SMILES: CCN(C(=O)c1c(O)c2c(Cl)cccc2n(C)c1=O)c1ccccc1 [laquinimod, N-ethyl-N-phenyl-1,2-dihydro-4-hydroxy-5-chloro-1-methyl-2-oxoquinoline-3-carboxamide]
pKa [5]: 4.2
intrinsic solubility [6]: 0.007 mg/mL
intrinsic solubility ([6]; listed as Free laquinimod): about 0.007 mg/ml

SMILES: Cc1cnc(NC(=O)C2=C(O)c3ccccc3S(=O)(=O)N2C)s1 [meloxicam sodium salt]
Aqueous solubility ([2]; pH 8.06): 2.0 mg/mL

SMILES: NCCO.Oc1cc(Cl)ccc1Oc1ccc(Cl)cc1Cl [Monoethanolamine salt of triclosan]
solubility ([2]; pH not given): 5.84 mg/mL

SMILES: Cc1cnc(NC(=O)C2=C(O)c3ccccc3S(=O)(=O)N2C)s1 [free meloxicam, meloxicam]
solubility ([2]; pH 7.4): 0.74 mg/mL (≈ 2110 µM)

SMILES: CN1C(C(=O)Nc2ccccn2)=C(O)c2ccccc2S1(=O)=O [free piroxicam, piroxicam]
solubility ([2]; pH 7.4, unit not given): 0.17

SMILES: CC(C)Cc1ccc(C(C)C(=O)[O-])cc1.[Na+] (stereo not shown) [ibuprofen sodium salt]
solubility ([2]; pH not given): 100 mg/mL

Further lines, with some results ahead:

solubility in water according to the USP ([1]; USP descriptive term): freely soluble to soluble
SMILES: CCN(C(=O)c1c(O)c2c(Cl)cccc2n(C)c1=O)c1ccccc1 [laquinimod sodium, reference compound]
Aqueous solubility ([6]; existing sodium salt, U.S. Pat. No. 7,589,208): 138 mg/mL

solubility relative to the sodium salt ([1]; laquinimod choline hydroxide salt vs laquinimod sodium): over 14 times
Aqueous solubility ([1]; depends on preparation method and form, listed as choline hydroxide salt of laquinimod): 2000 mg/mL and 2100 mg/mL
SMILES: CCN(C(=O)c1c(O)c2c(Cl)cccc2n(C)c1=O)c1ccccc1 [laquinimod choline hydroxide]

Physical stability (physical change) [3, 9]: no sign of physical change
Sample appearance ([3]; +5° C., 5 months): White flowable powder
Sample appearance ([3]; +5° C., 6 months): white flowable powder
Sample appearance ([3]; +5° C., 9 months): White flowable powder
Sample appearance ([3]; +5° C., time 0 month): White flowable powder
Physical stability (physical change) [3, 8]: No physical change was observed
Aqueous solubility [1]: 1176 mg/ml H2O
Aqueous solubility ([1]; depends on preparation method and form, listed as 3.1): 1176 mg/mL
SMILES: CCN(C(=O)c1c(O)c2c(Cl)cccc2n(C)c1=O)c1ccccc1 [Batch 9, laquinimod L-lysine]

Sample appearance ([3]; +5° C., time 0 month): White glassy solid
Physical stability (physical change) [3, 8]: Physical change was observed
SMILES: CCN(C(=O)c1c(O)c2c(Cl)cccc2n(C)c1=O)c1ccccc1 [Batch 6, laquinimod choline hydroxide]
Physical stability (physical change) ([3]; +5° C., after 5 months): developed color and deliquescence occurred
Sample appearance ([3]; +5° C., 6 months): yellowish semi-solid with signs of deliquescence

Physical stability (physical change) [3, 11]: slight aggregation was developed
Sample appearance ([3]; +5° C., 3 months): off-white powder
Sample appearance ([3]; +5° C., time 0 month): White powder
Aqueous solubility [1]: 1176 mg/ml H2O
Aqueous solubility ([1]; depends on preparation method and form, listed as 4.2): 1176 mg/mL
SMILES: CCN(C(=O)c1c(O)c2c(Cl)cccc2n(C)c1=O)c1ccccc1 [Batch 13, laquinimod monoethanolamine]

Physical stability (physical change) [3, 9]: no sign of physical change
Sample appearance ([3]; +5° C., 5 months): White flowable powder
Sample appearance ([3]; +5° C., 6 months): white powder
Sample appearance ([3]; +5° C., 9 months): White flowable powder
Sample appearance ([3]; +5° C., time 0 month): White flowable powder
Physical stability (physical change) [3, 8]: No physical change was observed
Aqueous solubility [1]: 1000 mg/ml H2O
Aqueous solubility ([1]; depends on preparation method and form, listed as 3.2): 1000 mg/mL
SMILES: CCN(C(=O)c1c(O)c2c(Cl)cccc2n(C)c1=O)c1ccccc1 [Batch 10, laquinimod L-lysine]

Aqueous solubility ([1]; depends on preparation method and form, listed as Laquinimod monoethanoloamine salt): 625 mg/mL and 1176 mg/mL
SMILES: CCN(C(=O)c1c(O)c2c(Cl)cccc2n(C)c1=O)c1ccccc1 [laquinimod monoethanolamine]

Physical stability (physical change) [3, 12]: no sign of physical change
Physical stability (physical change) [3, 8]: No physical change was observed
Aqueous solubility [1]: 1050 mg/ml H2O
Aqueous solubility ([1]; depends on preparation method and form, listed as 1.4): 1050 mg/mL
SMILES: CCN(C(=O)c1c(O)c2c(Cl)cccc2n(C)c1=O)c1ccccc1 [Batch 4, laquinimod meglumine]
Sample appearance ([3]; +5° C., 6 months): white powder with no signs of deliquescence

Physical stability (physical change) [3, 9]: no sign of physical change
Sample appearance ([3]; +5° C., 5 months): White powder
Sample appearance ([3]; +5° C., 9 months): White powder
Sample appearance ([3]; +5° C., time 0 month): White powder
Physical stability (physical change) [3, 8]: No physical change was observed
Aqueous solubility [1]: 2000 mg/ml H2O
Aqueous solubility ([1]; depends on preparation method and form, listed as 2.4): >2000** mg/ml
SMILES: CCN(C(=O)c1c(O)c2c(Cl)cccc2n(C)c1=O)c1ccccc1 [Batch 8, laquinimod choline hydroxide]
Sample appearance ([3]; +5° C., 6 months): white powder with no signs of deliquescence

Physical stability (physical change) [3, 11]: no sign of physical change
Sample appearance ([3]; +5° C., 3 months): white powder
Physical stability (physical change) [3, 7]: No physical change was observed
Physical stability [4, 10]: no change
Physical stability ([4]; RH=25-30%, T=18-20° C., 16 hours): aggregated white powder
SMILES: CCN(C(=O)c1c(O)c2c(Cl)cccc2n(C)c1=O)c1ccccc1 [Batch 14, laquinimod monoethanolamine]

Physical stability (physical change) [3, 12]: no sign of physical change
Sample appearance ([3]; +5° C., 6 months): White flowable powder
Sample appearance ([3]; +5° C., last row of Table 7.A, time printed 0 month): White flowable powder
Sample appearance ([3]; +5° C., time 0 month): White flowable powder
Physical stability (physical change) [3, 8]: No physical change was observed
Aqueous solubility [1]: 1330 mg/ml H2O
Aqueous solubility ([1]; depends on preparation method and form, listed as 1.1): 1330 mg/mL
SMILES: CCN(C(=O)c1c(O)c2c(Cl)cccc2n(C)c1=O)c1ccccc1 [Batch 1, laquinimod meglumine]
Physical stability ([4]; RH=38%, open dish, 20 hours): No signs of aggregation or deliquescence were observed

Source: patent US8975279B2, “Amine salts of laquinimod” (Teva Pharmaceutical Industries, Ltd., priority 2012, dated 2015)
